36 compounds from patent publication US10098883B2, “(Aza)pyridopyrazolopyrimidinones and indazolopyrimidinones and their use” (BAYER PHARMA AKTIENGESELLSCHAFT, priority 2013, dated 2018) can be followed below.

This test has as its system clot lysis (fibrinolysis) in human citrated plasma, tPA-induced. Nature of the test: Plasma-based clot lysis assay (5%). Format: biochemical. To be noted: diluted human citrated plasma (platelet-poor, 5%), fibrinogen 3 μM, CaCl2 10 mM, tPA 0.2 nM, 37° C., OD 405 nm. On the procedure:
B-2. Plasma-based Clot Lysis Assay (5%)
The clot-lysis test system configures the kinetics of clot formation and degradation in vitro and allows quantifying modulation of the process by selected test compounds.
The test compounds were dissolved in 1% acetic acid and further complemented with an equal volume of DMSO. The resulting stock solutions were serially diluted in 0.5% acetic acid/50% DMSO. 1 μL aliquots of these solutions were placed into 384 well microplates (Greiner, black, transparent bottom), followed by 30 μL of diluted human citrated plasma (platelet-poor, final concentration: 5%; supplemented with fibrinogen, final concentration: 3 μM; dilution buffer: 20 mM HEPES, 150 mM NaCl, 0.01% Brij (pH 7)). The reactions were started by addition of […] of CaCl2 (final concentration: 10 mM), and tPA (tissue plasminogen activator, final concentration: 0.2 nM) in dilution buffer, followed by an additional volume of 20 μL dilution buffer for improved mixing. The reactions were incubated at 37° C. Clot formation and degradation was monitored spectrophotometrically by kinetic optical density measurements at 405 nm. IC50 values were determined by comparing the resulting time courses with the time course of a blank control reaction.

Where a name gives a salt, the structure may show the parent alone.

`C[C@H]1C[C@H](c2cc(=O)[nH]c3c4c(Cl)cccc4nn23)CCN1` [Example 68, (−)-trans-10-Chloro-4-(2-methylpiperidin-4-yl)pyrimido[1,2-b]indazol-2(1H)-one hydrochloride] showed an IC50 (hydrochloride) of 25 nM. For the compound `Cc1ccc2nn3c(C4CCNCC4)cc(=O)[nH]c3c2c1Cl` [Example 69, 10-Chloro-9-methyl-4-(piperidin-4-yl)pyrimido[1,2-b]indazol-2(1H)-one hydrochloride], half-maximal inhibition (IC50) was put at 20 nM. This counts as double-digit nanomolar. In the case of `O=c1cc(C2CCNCC2)n2nc3ccc(F)c(Br)c3c2[nH]1` [Example 70, 10-Bromo-9-fluoro-4-(piperidin-4-yl)pyrimido[1,2-b]indazol-2(1H)-one hydrochloride], the IC50 was 35 nM.

Compound `O=c1cc(C2CCNCC2)n2nc3c(F)ccc(Br)c3c2[nH]1` [Example 71, 10-Bromo-7-fluoro-4-(piperidin-4-yl)pyrimido[1,2-b]indazol-2(1H)-one hydrochloride] returned an IC50 of 15 nM. The compound `CCC(C)c1cccc2nn3c(C4CCNCC4)cc(=O)[nH]c3c12` (stereo not drawn) [Example 72, 10-sec-Butyl-4-(piperidin-4-yl)pyrimido[1,2-b]indazol-2(1H)-one hydrochloride] registered a concentration for half-maximal inhibition (IC50) of 14 nM. Same read-out and setting: the same measure for `CC(C)Cc1cccc2nn3c(C4CCNCC4)cc(=O)[nH]c3c12` [Example 73, 10-Isobutyl-4-(piperidin-4-yl)pyrimido[1,2-b]indazol-2(1H)-one hydrochloride]: 23 nM. As for `Cc1ccc2nn3c(C4CCNCC4)cc(=O)[nH]c3c2c1Br` [Example 74, 10-Bromo-9-methyl-4-(piperidin-4-yl)pyrimido[1,2-b]indazol-2(1H)-one hydrochloride], the IC50 was determined as 15 nM.

Take `Cc1ccc(Br)c2c1nn1c(C3CCNCC3)cc(=O)[nH]c21` [Example 75, 10-Bromo-7-methyl-4-(piperidin-4-yl)pyrimido[1,2-b]indazol-2(1H)-one hydrochloride]: the IC50 is 16 nM. In the case of `CC(C)Oc1cccc2nn3c(C4CCNCC4)cc(=O)[nH]c3c12` [Example 76, 10-Isopropoxy-4-(piperidin-4-yl)pyrimido[1,2-b]indazol-2(1H)-one hydrochloride], half-maximal inhibition (IC50) was put at 15 nM. Same read-out and setting: the same measure for `O=c1cc(C2CCNCC2)n2nc3ccc(F)c(-c4ccccc4)c3c2[nH]1` [Example 77, 9-Fluoro-10-phenyl-4-(piperidin-4-yl)pyrimido[1,2-b]indazol-2(1H)-one hydrochloride]: 11 nM; for `O=c1cc(C2CCNCC2)n2nc3cccc(-c4c(F)cccc4F)c3c2[nH]1` [Example 78, 10-(2,6-Difluorophenyl)-4-(piperidin-4-yl)pyrimido[1,2-b]indazol-2(1H)-one hydrochloride]: 15 nM; for `Cc1cc(Cl)c2c(c1)nn1c(C3CCNCC3)cc(=O)[nH]c21` [Example 79, 10-Chloro-8-methyl-4-(piperidin-4-yl)pyrimido[1,2-b]indazol-2(1H)-one hydrochloride]: 11 nM. On the same count and under the same terms, the same measure for `O=c1cc(C2CCNCC2)n2nc3cccc(-c4ccccc4OC(F)(F)F)c3c2[nH]1` [Example 80, 4-(Piperidin-4-yl)-10-[2-(trifluoromethoxy)phenyl]pyrimido[1,2-b]indazol-2(1H)-on hydrochloride]: 18 nM; for `O=c1cc(C2CCNCC2)n2nc3cc(F)cc(Br)c3c2[nH]1` [Example 81, 10-Bromo-8-fluoro-4-(piperidin-4-yl)pyrimido[1,2-b]indazol-2(1H)-one hydrochloride]: 16 nM; for `O=c1cc(C2CCNCC2)n2nc3cccc(-c4ccccn4)c3c2[nH]1` [Example 82, 4-(Piperidin-4-yl)-10-(pyridin-2-yl)pyrimido[1,2-b]indazol-2(1H)-one hydrochloride]: 20 nM. Same read-out and setting: the value for `O=c1cc(C2CCNCC2)n2nc3cccc(-c4nccs4)c3c2[nH]1` [Example 83, 4-(Piperidin-4-yl)-10-(1,3-thiazol-2-yl)pyrimido[1,2-b]indazol-2(1H)-one hydrochloride] was 41 nM; that for `O=c1cc(C2CCNCC2)n2nc3cccc(-c4ccsc4)c3c2[nH]1` [Example 84, 4-(Piperidin-4-yl)-10-(3-thienyl)pyrimido[1,2-b]indazol-2(1H)-one hydrochloride] was 23 nM; that for `Cc1ccccc1-c1cccc2nn3c(C4CCNCC4)cc(=O)[nH]c3c12` [Example 85, 10-(2-Methylphenyl)-4-(piperidin-4-yl)pyrimido[1,2-b]indazol-2(1H)-one hydrochloride] was 18 nM. With `Cn1nccc1-c1cccc2nn3c(C4CCNCC4)cc(=O)[nH]c3c12` [Example 86, 10-(1-Methyl-1H-pyrazol-5-yl)-4-(piperidin-4-yl)pyrimido[1,2-b]indazol-2(1H)-one hydrochloride], the IC50 came to 15 nM. This IC50 and that of the compound before are within 1.5-fold of each other. In turn, `Cn1cc(-c2cccc3nn4c(C5CCNCC5)cc(=O)[nH]c4c23)cn1` [Example 87, 10-(1-Methyl-1H-pyrazol-4-yl)-4-(piperidin-4-yl)pyrimido[1,2-b]indazol-2(1H)-one hydrochloride] came in with an IC50 of 25 nM. On the same count and under the same terms, the value for `O=c1cc(C2CCNCC2)n2nc3cccc(-c4cccs4)c3c2[nH]1` [Example 88, 4-(Piperidin-4-yl)-10-(2-thienyl)pyrimido[1,2-b]indazol-2(1H)-one hydrochloride] was 26 nM.

In the case of `Cc1cc(Br)c2c(c1)nn1c(C3CCNCC3)cc(=O)[nH]c21` [Example 89, 10-Bromo-8-methyl-4-(piperidin-4-yl)pyrimido[1,2-b]indazol-2(1H)-one hydrochloride], the IC50 was determined as 36 nM. Still for that read-out and setting: the value for `O=c1cc(C2CCNCC2)n2nc3ccc(F)c(Cl)c3c2[nH]1` [Example 90, 10-Chloro-9-fluoro-4-(piperidin-4-yl)pyrimido[1,2-b]indazol-2(1H)-one hydrochloride] was 24 nM; that for `O=c1cc(C2CCNCC2)n2nc3cccc(-n4cncn4)c3c2[nH]1` [Example 91, 4-(Piperidin-4-yl)-10-(1H-1,2,4-triazol-1-yl)pyrimido[1,2-b]indazol-2(1H)-one hydrochloride] was 27 nM; that for `O=c1cc(C2CCNCC2)n2nc3ccc(F)c(-c4ccccc4F)c3c2[nH]1` [Example 92, 9-Fluoro-10-(2-fluorophenyl)-4-(piperidin-4-yl)pyrimido[1,2-b]indazol-2(1H)-one hydrochloride] was 27 nM.

As to `CCOc1ccccc1-c1cccc2nn3c(C4CCNCC4)cc(=O)[nH]c3c12` [Example 93, 10-(2-Ethoxyphenyl)-4-(piperidin-4-yl)pyrimido[1,2-b]indazol-2(1H)-one hydrochloride], 28 nM corresponded to half-maximal inhibition (IC50). On the same count and under the same terms, the same measure for `CC(C)Oc1ccccc1-c1cccc2nn3c(C4CCNCC4)cc(=O)[nH]c3c12` [Example 94, 10-(2-Isopropoxyphenyl)-4-(piperidin-4-yl)pyrimido[1,2-b]indazol-2(1H)-one hydrochloride]: 35 nM; for `O=c1cc(C2CCNCC2)n2nc3cccc(-c4ccccc4F)c3c2[nH]1` [Example 95, 10-(2-Fluorophenyl)-4-(piperidin-4-yl)pyrimido[1,2-b]indazol-2(1H)-one]: 18 nM.

As for `O=c1cc(C2CCNCC2)n2nc3cccc(-n4cccn4)c3c2[nH]1` [Example 96, 4-(Piperidin-4-yl)-10-(1H-pyrazol-1-yl)pyrimido[1,2-b]indazol-2(1H)-one hydrochloride], the IC50 is 26 nM. In the case of `COc1cccc(F)c1-c1cccc2nn3c(C4CCNCC4)cc(=O)[nH]c3c12` [Example 97, 10-(2-Fluoro-6-methoxyphenyl)-4-(piperidin-4-yl)pyrimido[1,2-b]indazol-2(1H)-one hydrochloride], the IC50 was found to be 30 nM. `O=c1cc(C2CCNCC2)n2nc3cccc(-n4nccn4)c3c2[nH]1` [Example 98, 4-(Piperidin-4-yl)-10-(2H-1,2,3-triazol-2-yl)pyrimido[1,2-b]indazol-2(1H)-one hydrochloride] had an IC50 of 27 nM.

In turn, `O=c1cc(C2CCNCC2)n2nc3cccc(-n4ccnn4)c3c2[nH]1` [Example 99, 4-(Piperidin-4-yl)-10-(1H-1,2,3-triazol-1-yl)pyrimido[1,2-b]indazol-2(1H)-one hydrochloride] displayed an IC50 of 29 nM. The same measure, in the same setting: the value for `Cc1ccc(Cl)c2c1nn1c(C3CCNCC3)cc(=O)[nH]c21` [Example 100, 10-Chloro-7-methyl-4-(piperidin-4-yl)pyrimido[1,2-b]indazol-2(1H)-one hydrochloride] was 30 nM; that for `O=c1cc(C2CCNCC2)n2nc3cccc(-c4cnc[nH]4)c3c2[nH]1` [Example 103, 10-(1H-imidazol-5-yl)-4-(piperidin-4-yl)pyrimido[1,2-b]indazol-2(1H)-one hydrochloride] was 110 nM; that for `O=c1cc(C2CCNCC2)n2nc3cccc(-c4ccc[nH]4)c3c2[nH]1` [Example 104, 4-(piperidin-4-yl)-10-(1H-pyrrol-2-yl)pyrimido[1,2-b]indazol-2(1H)-one hydrochloride] was 35 nM.

On to `O=c1cc(C2CCNCC2)n2nc3cccc(O)c3c2[nH]1` [Example 105, 10-hydroxy-4-(piperidin-4-yl)pyrimido[1,2-b]indazol-2(1H)-one hydrobromide], for which the IC50 turned out to be 74 nM.
